The results in this text go back to patent US11034666B2, “Anti-inflammatory and antitumor 2-oxothiazoles and 2-oxothiophenes compounds” (Avexxin AS, priority 2013, dated 2021).

Each structure is given as a SMILES string.

One data set deals with MAS98.12 xenograft. As to the kind of experiment: Patient-derived basal-like breast cancer xenograft, long-term treatment. It is filed as in vivo, mouse. On the procedure:
As described more fully below, we conducted a study in a patient-derived xenograft model of basal-like breast cancer, which is responsive to […], is highly vascularised and has a high expression of cPLA2. The mice received 30 mg Compound A/kg bw by ip. injection daily for a 7 days, then every second day for 14 more days. A group of control mice received DMSO only. Tumor volumes were measured throughout the study period.
Mouse model: MAS98.12. This model is established from a primary breast carcinoma at the Institute for Cancer Research, OUS [10]. The MR Cancer Group has previously characterised this model both with respect to metabolic profile, vascularisation, response to antiangiogenic treatment and response to PI3K inhibition. Treatment was initiated when the xenograft tumors had reached a volume of 83±51 mm3 (tumor volume=d1×d2×[…]). The majority of mice had bilateral tumors.
Mice received 30 mg/kg bw COMPOUND A in 50 μl DMSO, through intraperitoneal injection. Control groups received volume-matched, drug-free DMSO injections. Tumor volume measured with electronic callipers from day −3 until the end of the experiment (Day 19).
Arm 2: Long-term treatment One group (n=6, 11 tumors) treated with COMPOUND A daily for 7 days, then every 2nd day for the remainder of the study. Controls (n=6, 10 tumors) treated with drug-free DMSO according to the same protocol. […] Throughout the study, the tumor volume was measured every 2-3 days, and the body weight of the mice was monitored regularly.

Data set [1] has as its system collagen-induced arthritis (CIA) mouse model. The data set is described as follows: Prophylactic collagen-induced arthritis (CIA) study. It is filed as in vivo, male DBA/1 mice. How it is done: The prophylactic effect of Compound A on CIA model in male DBA/1 mice^57 following intraperitoneal (ip) administration, treatment starting 1 hour prior to the last immunization was studied. A study comparing naïve mice (healthy, non-CIA, non-treated), vehicle-treated mice (CIA with DMSO, ip) and CIA mice treated daily with Compound A (7.5 mg/kg, ip) or MTX (0.3 mg/kg, ip) was performed. CIA developed rapidly in mice immunized with CII. In the prophylactic study, a 100% incidence of CIA was observed by day 29 in CII-immunized mice, with maximum AI of 8.55 observed at 41 days post immunization. The AI and incidence of all groups increased in a time-dependent mode from day 25 to day 41.
Separate prophylactic and therapeutic efficacy studies of COMPOUND A were performed. Methotrexate (MTX) (Jiangsu Hengrui Medicine Co, #11041411), Enbrel (Boehringer Ingelheim Pharma KG, # F39487), and vehicle (DMSO 100%, Sigma Aldrich # D2650) were administered to all groups via intraperitoneal injection once daily at a dose volume of 2 mL/kg. Observations for morbidity, mortality, injury, and the availability of food and water were conducted twice daily for all animals. Clinical observations were conducted daily during the study. Body weights were measured and recorded prior to randomization and then once daily during the study. Food consumption was measured and recorded daily. Biopsies for mid-term histology analysis were obtained on Day 13 in the prophylactic study. Necropsy examinations were performed at study termination; plasma samples were collected, organ weights were recorded
(§1) For the prophylactic and the therapeutic studies, CIA was induced in male DBA/1 mice (except naïve mice) by immunization with 0.1 mL emulsion containing an equal volume of bovine type II collagen solution (2 mg/mL) and Freuds Complete Adjuvant at the tail base. The first injection was given on Day 0 and the second injection as booster was given on Day 21 (41-43). COMPOUND A, vehicle (DMSO) and MTX (0.3 mg/kg) were administered daily, Enbrel (25 mg/kg) was administrated twice a week. For the prophylactic study, treatment started one hour before the second collagen injection and continued for 21 days except for the histology groups that were sacrificed at Day 13 ([…]). For the therapeutic study, treatment started at Day 28 and continued for 14 days.
CIA Assessment and Treatment. CIA was assessed in mice by two blinded observers to measure paw swelling with a capacity measurement method on Day 0, Day 20, Day 22, Day 25, Day 27, Day 29, Day 32, Day 34, Day 36, Day 39 and Day 41 after the first injection. The occurrence of arthritis was observed by scoring all paws for severity of erythema and swelling, using a clinical score ranging from 0 (no swelling) to 4 (severe swelling and erythema). The physical condition of the animals was observed daily. Scores and overall evaluation of the histology group arms were performed in the same way as the main groups. However, the values measured were not included in the mean value calculations of the main groups. The YLS-7B Foot Volume Measuring Instrument (Huaibei China Bio Equipment) was used to measure the foot volume of mice. The occurrence of arthritis was observed by scoring all paws for severity of erythema and swelling, using a clinical score ranging from 0 (no swelling) to 4 (severe swelling and erythema), i.e. yielding maximum arthritic index (AI) score 16 (46).
Measurement of the histopathology and clinical observations. At the end of the studies, one hind foot of each mouse was collected for histopathology. The foot including the ankle was fixed in 10% neutral formalin. The ankle joints were decalcified, dehydrated, embedded in paraffin, sectioned and stained with routine hematoxylin-eosin. The sections were studied using light microscopy (10×10 and 20×10 magnifications). Arthritis damage (histological damage score) was evaluated and scored by an investigator blinded for the treatment regimen. […]

The next data set relates to PGE2. The data set is described as follows: Plasma PGE2 EIA, therapeutic CIA study. It is filed as in vivo, male DBA/1 mice. How it is done:
There were no significant differences between the treatment groups (p>0.05).
PGE2 EIA analysis of blood plasma from the prophylactic and therapeutic CIA studies was performed according to kit protocol. Plasma samples were diluted 1:1000-1:6000 in EIA buffer and allowed to hybridize over-night (18 hrs, 4° C.). The plate was read using a Multiscan plate reader (Ascent Labsystems) (OD550 nm). The corresponding Ascent software for Multiscan, Version 2.4.1 was used to obtain the data. PGE2 levels for all treatments are shown relative to the DMSO-treated vehicle arthritic mice (n=10-11 mice in each category±SD).
as §1

Setting [2] is: hind paw, Compound A 7.5 mg/kg, MTX 0.3 mg/kg.

As for `CCCCCCCCc1ccc(OCC(=O)c2nc(C(=O)OC)cs2)cc1` [Compound A, Methyl 2-(2-(4-octylphenoxy)acetyl)thiazole-4-carboxylate], in the data set on MAS98.12 xenograft (30 mg/kg bw ip daily for 7 days, then every second day for 14 more days, end of the study), the “tumor volume as % of the control tumors” value turned out to be 36%. The “tolerability (in words)” value in the data set with MAS98.12 xenograft (30 mg/kg ip, long-term treatment) is listed as “well tolerated with no overt adverse effects”. For the same compound, the body weight in the data set with MAS98.12 xenograft (30 mg/kg ip, Day 5) came out at 24 ± 3 g. Also, in the data set on MAS98.12 xenograft (30 mg/kg ip, Day 19), the body weight was determined as 27 ± 3 g and the maximal tumor diameter amounted to 10.5 mm. The “effect on tumor growth (in words)” value with MAS98.12 xenograft (30 mg/kg ip, FIG. 1) is listed as “strong inhibitory effect on tumor growth”. Also, the tumor volume in the data set with MAS98.12 xenograft (30 mg/kg ip, end of the study (Day 19), control 759±401) is 265±138 mm^3. The “arthritic index (AI) in comparison to the CIA control group (in words)” value in data set [1] (Days 32 to 41, Compound A 7.5 mg/kg ip daily, MTX 0.3 mg/kg ip daily) is recorded as “significantly reduced”. In data set [1] (setting [2]), the “articular cavity and peripheral tissue inflammatory cell infiltration, histopathology vs vehicle (in words)” value is recorded as “reduced”; the “capillary and synovial hyperplasia, histopathology vs vehicle (in words)” value is “reduced”; the “cartilage damage, histopathology vs vehicle (in words)” value is “no significant effect”. Also, the “plasma PGE2 level” value in the data set on PGE2 (therapeutic CIA study, Compound A 30 mg/kg, Enbrel 25 mg/kg, vehicle 231.1±110, mean ± SD) stood at 139 ± 55 ng/mL. Besides, in the data set with PGE2 (therapeutic mode, vs vehicle), the “reduction of plasma PGE2 levels” value was “about 40%”.
